Publication PMC12195660, “Preparation and Evaluation of an Oral Administration System of Albendazole-Metal-Organic Framework Based on Dual Response to pH and Enzymes” (Pharmaceuticals, 2025)

Test: In vivo pharmacokinetic study after intragastric administration in rats
Settings: both sexes, Wistar, rat, po, 25 mg·kg^−1 of ABZ
Method: Eighteen Wistar rats were selected and divided into three groups, with half of them being male and the other half being female. Each group was given a dose of 25 mg·kg^−1 of ABZ by intragastric administration. Blood samples of 200–500 μL were collected from each rat at 0.5, 1, 2, 4, 6, 8, 10, 12, and 24 h after administration and were placed into pre-prepared anticoagulant centrifuge tubes. The samples were centrifuged at 13,000 rpm for 10 min, and the upper plasma was collected and stored at −80 °C in an ultra-low temperature refrigerator.
For sample preparation, plasma was thawed, and 50 μL of plasma was mixed with 150 μL of methanol. The mixture was vortexed for 1 min and then centrifuged at 13,000 rpm for 10 min. The supernatant (135 μL) was collected, followed by the addition of 200 ng·mL^−1 mebendazole as the internal standard. The sample was vortexed for 1 min and then filtered through a microporous membrane. The drug content was quantified using UHPLC-MS/MS (UltiMate 3000 and Q-Exactive Orbitrap MS, Thermo Scientific, USA). Pharmacokinetic parameters were calculated using DAS 2.0 software.
Chromatographic conditions: An Accucore aQ UHPLC column (150 mm × 2.1 mm × 2.5 μm) was used. The column temperature was maintained at 40 ± 1 °C, and the sample tray was kept at 15 ± 0.5 °C. The mobile phase consisted of acetonitrile (A) and water with 0.1% formic acid (B). The elution gradient was as follows: 0–5 min, 95% B. The injection volume was 1 μL, and the flow rate was set to 0.3 mL·min^−1.
Mass spectrometry conditions: Electrospray ionization (ESI) was used with high-purity nitrogen (purity > 99.9%) as the carrier gas. The sheath gas flow rate was 35 Arb, and the auxiliary gas flow rate was 10 Arb. The capillary temperature was set to 320 °C, with the ion lens (S-lens RF level) voltage frequency at 60. The spray voltage was 3.0 kV (positive mode), and full MS positive switching scanning mode was employed, with a scanning range of 150–800.

## CCCSc1ccc2nc(NC(=O)OC)[nH]c2c1 [ABZ, albendazole]
In vivo, n = 6
  half-life: 2 ± 0.38 h
plasma, n = 6
  AUC(0-inf): 220 ± 25.3 ng·h/mL
  AUC(0-t): 216 ± 27.6 ng·h/mL
  Cmax: 34.1 ± 5.19 ng/mL
  Tmax: 2 ± 0.38 h
plasma, n = 6, read-out: MRT0–t
  MRT last: 6.16 ± 0.36 h
plasma, n = 6, read-out: MRT0–∞
  MRT inf: 6.55 ± 0.37 h
